Reference: ChEMBL document CHEMBL1136060, “A new class of type I protein geranylgeranyltransferase (GGTase I) inhibitor” (Bioorg Med Chem Lett, 2002)
Values joined by “and” are separate entries in the source; they are usually repeats but may differ in a detail not shown here. Equal entries are not always repeated.

What follows are molecules tested on Candida albicans (assay: Antifungal activity against Candida albicans).
Type: functional

With `O=C(OC(CS)C(O)CS)c1csc(C2COc3ccccc3O2)n1` (configuration not stated) the MIC was greater than 120 µg/mL.

Each molecule was assayed on Geranylgeranyl transferase type I (Candida albicans) (assay: Tested for the inhibition of Candida GGTase I in Candida albicans at concentration of 3 uM).

`O=C(CNC(=O)C1COc2ccccc2O1)OCCCS` (configuration not stated) and `CC(O)C(NC(=O)C1COc2ccccc2O1)C(=O)OCCCS` (configuration not stated) cannot be ordered by inhibition: less than 10% for the first, less than 10% for the second.

Going from `O=C(OCCCS)C(Cc1c[nH]c2ccccc12)NC(=O)C1COc2ccccc2O1` (configuration not stated) to `O=C(OCCCS)C(Cc1ccccc1)NC(=O)C1COc2ccccc2O1` (configuration not stated), the inhibition falls from 72% to 55%.

`O=C(O)CCC(NC(=O)C1Cc2ccccc2C1)C(=O)OCCCS` (configuration not stated) and `CC(O)C(NC(=O)C1Cc2ccccc2C1)C(=O)OCCCS` (configuration not stated) cannot be ordered by inhibition: less than 10% for the first, less than 10% for the second.

Compared with `O=C(OCCCS)C(Cc1ccc2ccccc2c1)NC(=O)C1COc2ccccc2O1` (configuration not stated), `O=C(NC(C(=O)OCCCS)c1cccc2ccccc12)C1COc2ccccc2O1` (configuration not stated) is higher in inhibition: 25% for the first, 89% for the second.

First: O=C(NC(Cc1ccccc1)C(=O)OCCCS)C1Cc2ccccc2C1 (configuration not stated)
Second: O=C(NC(Cc1ccc2ccccc2c1)C(=O)OCCCS)C1Cc2ccccc2C1 (configuration not stated)
The inhibition of the first is higher: 63% for the first, 36% for the second.

Compared with `O=C(NC(C(=O)OCCCS)c1cccc2ccccc12)C1Cc2ccccc2C1` (configuration not stated), `O=C(NC(Cc1c[nH]c2ccccc12)C(=O)OCCCS)C1Cc2ccccc2C1` (configuration not stated) is lower in inhibition: 90% for the first, 72% for the second.

Compared with `NC(=O)[C@@H](Cc1c[nH]cn1)NC(=O)[C@@H](Cc1cccc2ccccc12)NC(=O)C1Cc2ccccc2C1`, `NC(=O)[C@@H](Cc1c[nH]cn1)NC(=O)[C@@H](Cc1cccc2ccccc12)NC(=O)C1c2ccccc2Oc2ccccc21` is higher in inhibition: 48% for the first, 97% for the second.

`O=C(NC(CC1CCCCC1)C(=O)OCCCS)C1Cc2ccccc2C1` (configuration not stated) and `O=C(OCCCS)C(CC1CCCCC1)NC(=O)C1COc2ccccc2O1` (configuration not stated) cannot be ordered by inhibition: less than 10% for the first, less than 10% for the second.

`O=C(O)CCC(NC(=O)C1COc2ccccc2O1)C(=O)OCCCS` (configuration not stated) and `O=C(CNC(=O)C1Cc2ccccc2C1)OCCCS` cannot be ordered by inhibition: less than 10% for the first, less than 10% for the second.

With `NC(=O)[C@@H](Cc1c[nH]cn1)NC(=O)[C@@H](Cc1cccc2ccccc12)NC(=O)C1c2ccccc2-c2ccccc21` the inhibition was 71% and 96%.

What follows are molecules tested against Geranylgeranyl transferase type I (Candida albicans) (assay: Inhibition of Candida geranylgeranyl transferase I).

`O=C(OC(CS)C(O)CS)c1csc(C2COc3ccccc3O2)n1` (configuration not stated) gave an IC50 of 0.017 µM.

What follows are molecules tested against Protein farnesyltransferase (Homo sapiens, UniProt P49354+P49356) (assay: Inhibition of human farnesyl transferase).
Type: protein-complex assay

`O=C(OC(CS)C(O)CS)c1csc(C2COc3ccccc3O2)n1` (configuration not stated) showed an IC50 greater than 1000 µM.

The molecules below were run against Geranylgeranyl transferase type I (Candida albicans) (assay: Inhibition of Candida geranylgeranyl transferase I […]).

In order of falling IC50:
1. O=C(OCCS)c1csc(C2COc3ccccc3O2)n1 (configuration not stated)  1.3 µM
2. O=C(OCCCS)c1csc(C2COc3ccccc3O2)n1 (configuration not stated)  0.24 µM
3. O=C(OC(CS)C(O)CS)c1csc(C2COc3ccccc3O2)n1 (configuration not stated)  0.017 µM

Each molecule was assayed against T1, Geranylgeranyl transferase type I (Homo sapiens, UniProt P49354+P53609) (assay: Inhibition of human geranylgeranyl transferase I).
Type: protein-complex assay

`O=C(OC(CS)C(O)CS)c1csc(C2COc3ccccc3O2)n1` (configuration not stated) was tested, and the IC50 was 40 µM.

These molecules were tested against Geranylgeranyl transferase type I (Candida albicans) (assay: Tested for the inhibition of Candida GGTase I in Candida albicans).

In order of falling IC50:
1. O=C(NCCCS)c1csc(C2COc3ccccc3O2)n1 (configuration not stated)  0.78 µM
2. O=C(N[C@H](Cc1cccc2ccccc12)C(=O)NCCc1cnc[nH]1)C1Cc2ccccc2C1  0.35 µM
3. O=C(OCC(O)CS)c1csc(C2COc3ccccc3O2)n1 (configuration not stated)  0.031 µM
4. O=C(N[C@H](Cc1ccc(Cl)c(Cl)c1)C(=O)NCCc1c[nH]cn1)C1c2ccccc2Oc2ccccc21  0.01 µM
5. O=C(N[C@H](Cc1cccc2ccccc12)C(=O)OCCCS)C1Cc2ccccc2C1  0.0073 µM

Each molecule was assayed against T1, Geranylgeranyl transferase type I (assay: Tested for the selectivity against human geranylgeranyl transferase I).
Type: protein-complex assay

Work on `O=C(N[C@H](Cc1ccc(Cl)c(Cl)c1)C(=O)NCCc1c[nH]cn1)C1c2ccccc2Oc2ccccc21` yielded a Selectivity greater than 1000.
